The test system of test [1] is gram-positive and gram-negative bacteria. The note with it: known penicillins and N-acyl ampicillins; cited from earlier work.
Test [2] deals with Pseudomonas. The note with it: known penicillins and N-acyl ampicillins; cited from earlier work.
Test [3] has as its system Proteus miravilis GN2425. The experiment in a line: minimal inhibitory concentration, agar dilution method. In kind it is cell-based.
Test [4] concerns Klebsiella pneumoniae PCI602. The test is described as above. Format: cell-based. An excerpt:
(§1) When determined according to the agar dilution method, the penicillins (I) afford the minimal inhibitory concentrations against test microorganisms as shown in Table 2.

In test [5] the test system is Pseudomonas aeruginosa 104. The test is described as above. In kind it is cell-based.
Excerpt: as §1

Test [6] has as its system Escherichia coli NIHJ. Described as above. In kind it is cell-based.
Excerpt: as §1

The test system of test [7] is Staphylococcus aureus 209P. Described as above. Format: cell-based.
Excerpt: as §1

The subject of test [8] is Proteus vulgaris HV19. Described as above. In kind it is cell-based.

In brackets after ≈: the same amount, converted by molar mass.

For `CC1(C)S[C@@H]2[C@H](NC(=O)C3(N)CCCCC3)C(=O)N2[C@H]1C(=O)O` [Cyclacillin, 6-(1-amino-cyclohexane)carboxamidopenicillanic acid], the “growth inhibition / antimicrobial activity against gram-positive and gram-negative bacteria” value in test [1] was “inhibit the growth of various gram-positive and gram-negative bacteria”. In addition, the “antimicrobial activity against Pseudomonas” value in test [2] is “do not exert any appreciable antimicrobial activity against Pseudomonas”.

For the molecule “6-(α-amino-thienylacetamido)penicillanic acid”, the “growth inhibition / antimicrobial activity against gram-positive and gram-negative bacteria” value in test [1] was “inhibit the growth of various gram-positive and gram-negative bacteria”. In test [2], the “antimicrobial activity against Pseudomonas” value was “do not exert any appreciable antimicrobial activity against Pseudomonas”.

Take `CC1(C)S[C@@H]2[C@H](NC(=O)C(NC(=O)c3ccccn3)c3ccccc3)C(=O)N2[C@H]1C(=O)O` (stereo partly shown) [R, reference compound]: the MIC in test [3] was 50 µg/mL (≈ 110 µM); in test [4], 50 µg/mL (≈ 110 µM); in test [5], 50 µg/mL (≈ 110 µM); in test [6], 100 µg/mL (≈ 220 µM); in test [7] it was 0.78 µg/mL (≈ 1.72 µM).

For “6-(α-amino-isothiazolylacetamido)penicillanic acid”, in test [1], the “growth inhibition / antimicrobial activity against gram-positive and gram-negative bacteria” value was “inhibit the growth of various gram-positive and gram-negative bacteria”. The “antimicrobial activity against Pseudomonas” value in test [2] is listed as “do not exert any appreciable antimicrobial activity against Pseudomonas”.

Regarding `CC1(C)S[C@@H]2C(NC(=O)C(N)c3ccc(O)cc3)C(=O)N2[C@H]1C(=O)O` (stereo partly drawn) [Amoxycillin, 6-(α-amino-p-hydroxyphenylacetamido)penicillanic acid, reference compound], in test [1], the “growth inhibition / antimicrobial activity against gram-positive and gram-negative bacteria” value is “inhibit the growth of various gram-positive and gram-negative bacteria”. Also, the “antimicrobial activity against Pseudomonas” value in test [2] is recorded as “do not exert any appreciable antimicrobial activity against Pseudomonas”. Further, the MIC in test [3] was 3.13 µg/mL (≈ 8.57 µM); in test [8], 12.5 µg/mL (≈ 34.2 µM); in test [5], above 200 µg/mL; in test [6], 12.5 µg/mL (≈ 34.2 µM); in test [7] it was 0.2 µg/mL (≈ 0.547 µM).

Regarding `CC1(C)S[C@@H]2C(NC(=O)C(N)c3ccccc3)C(=O)N2[C@H]1C(=O)O` (stereo partly drawn) [Ampicillin, 6-(α-amino-phenylacetamido)penicillanic acid, reference compound], in test [1], the “growth inhibition / antimicrobial activity against gram-positive and gram-negative bacteria” value is “inhibit the growth of various gram-positive and gram-negative bacteria”. The MIC turned out to be 6.26 µg/mL (≈ 17.9 µM) in test [6] and 0.1 µg/mL (≈ 0.286 µM) in test [7].

As to `CCOC(=O)Oc1ccc([C@@H](NC(=O)c2cnc3ccc(N(C)C)nc3c2O)C(=O)N[C@@H]2C(=O)N3[C@@H]2SC(C)(C)[C@@H]3C(=O)O)cc1Cl` [Example 25], the MIC in test [3] was 3.13 µg/mL (≈ 4.56 µM); in test [8], 0.05 µg/mL (≈ 0.0728 µM); in test [5] it was 3.13 µg/mL (≈ 4.56 µM); in test [6], 3.13 µg/mL (≈ 4.56 µM); in test [7], 0.78 µg/mL (≈ 1.14 µM).

As to `CC1(C)S[C@@H]2[C@H](NC(=O)[C@H](N)C3=CCC=CC3)C(=O)N2[C@H]1C(=O)O` [Epicillin, 6-[α-amino-2-(1,4-hexadienylacetamido)]penicillanic acid], in test [1], the “growth inhibition / antimicrobial activity against gram-positive and gram-negative bacteria” value was “inhibit the growth of various gram-positive and gram-negative bacteria”. In addition, the “antimicrobial activity against Pseudomonas” value in test [2] is “do not exert any appreciable antimicrobial activity against Pseudomonas”.

Turning to `CC1(C)S[C@@H]2[C@H](NC(=O)[C@H](NC(=O)c3cnc4ccc(N)nc4c3O)c3ccc(O)cc3)C(=O)N2[C@H]1C(=O)O` [Example 24], the MIC in test [3] was 3.13 µg/mL (≈ 5.66 µM); in test [8], 0.05 µg/mL (≈ 0.0905 µM); in test [5], 3.13 µg/mL (≈ 5.66 µM); in test [6] it was 1.56 µg/mL (≈ 2.82 µM); in test [7] it was 1.56 µg/mL (≈ 2.82 µM).

Take `CCOC(=O)Oc1ccc([C@@H](NC(=O)c2cnc3cccnc3c2S)C(=O)N[C@@H]2C(=O)N3[C@@H]2SC(C)(C)[C@@H]3C(=O)O)cc1` [Example 39]: the MIC in test [3] amounted to 1.56 µg/mL (≈ 2.49 µM); in test [8], 0.05 µg/mL (≈ 0.0799 µM); in test [5], 1.56 µg/mL (≈ 2.49 µM); in test [6], 1.56 µg/mL (≈ 2.49 µM); in test [7], 0.78 µg/mL (≈ 1.25 µM).

As for `CC1(C)S[C@@H]2[C@H](NC(=O)[C@H](NC(=O)c3cnc4cccnc4c3S)c3ccc(O)cc3)C(=O)N2[C@H]1C(=O)O` [Example 43], the MIC in test [3] is 1.56 µg/mL (≈ 2.82 µM); in test [8], 0.025 µg/mL (≈ 0.0452 µM); in test [5], 1.56 µg/mL (≈ 2.82 µM); in test [6], 1.56 µg/mL (≈ 2.82 µM); in test [7] it was 0.78 µg/mL (≈ 1.41 µM).

Values taken from patent US3954733A, “Naphthyridine-3-carboxamido-benzylpenicillins and salts thereof” (Sumitomo Chemical Company, Limited, priority 1973, dated 1976).
